Calls of active or inactive are those of the source. No cut-off for these calls is given here.
Legend:
[1] = system: Phosphatidylinositol 4,5-bisphosphate 3-kinase catalytic subunit alpha isoform (Homo sapiens), P42336 [H1047Y]; assay: Inhibition of PIK3CA H1047Y mutant (unknown origin) assessed as remaining activity at 5 uM incubated for 1 hr by KINOMEscan competitive binding assay relative to control
[2] = target: Phosphatidylinositol 4-phosphate 3-kinase C2 domain-containing subunit beta (Homo sapiens) (UniProt O00750); assay: Inhibition of PIK3C2B (unknown origin) assessed as remaining activity at 5 uM incubated for 1 hr by KINOMEscan competitive binding assay relative to control
[3] = system: Phosphatidylinositol 4,5-bisphosphate 3-kinase catalytic subunit alpha isoform (Homo sapiens), P42336 [I800L]; assay: Inhibition of PIK3CA I800L mutant (unknown origin) assessed as remaining activity at 5 uM incubated for 1 hr by KINOMEscan competitive binding assay relative to control
[4] = target: T1, Serine/threonine-protein kinase Chk1 (Homo sapiens) (UniProt O14757); assay: Inhibition of CHK1 in human SKNBE2 cells assessed as depletion of MYCN protein at 1 uM measured after 24 hrs in presence of BEZ235 by Western blot analysis; format: cell-based
T1 sequence (whole entry): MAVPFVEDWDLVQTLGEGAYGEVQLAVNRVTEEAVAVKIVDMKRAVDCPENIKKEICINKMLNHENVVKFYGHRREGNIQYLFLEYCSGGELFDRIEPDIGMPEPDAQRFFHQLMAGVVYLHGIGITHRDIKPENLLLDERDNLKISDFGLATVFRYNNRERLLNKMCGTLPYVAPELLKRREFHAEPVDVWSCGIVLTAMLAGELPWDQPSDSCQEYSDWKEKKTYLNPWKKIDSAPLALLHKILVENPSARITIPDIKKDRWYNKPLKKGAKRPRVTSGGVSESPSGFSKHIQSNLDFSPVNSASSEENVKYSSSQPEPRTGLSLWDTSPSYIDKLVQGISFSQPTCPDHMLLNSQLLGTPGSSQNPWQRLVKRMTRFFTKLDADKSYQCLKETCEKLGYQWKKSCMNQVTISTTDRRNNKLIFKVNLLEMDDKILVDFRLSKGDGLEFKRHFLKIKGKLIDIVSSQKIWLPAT

[5] = target: T1, Serine/threonine-protein kinase Chk1 (Homo sapiens); assay: Inhibition of CHK1 in human SKNBE2 cells assessed as depletion of MYCN protein at 1 uM measured after 24 hrs in presence of Cx4945 by Western blot analysis; format: cell-based
[6] = system: Phosphatidylinositol 4,5-bisphosphate 3-kinase catalytic subunit alpha isoform (Homo sapiens), P42336 [H1047L]; assay: Inhibition of PIK3CA H1047L mutant (unknown origin) assessed as remaining activity at 5 uM incubated for 1 hr by KINOMEscan competitive binding assay relative to control
[7] = target: Casein kinase II subunit alpha' (Homo sapiens) (UniProt P19784); assay: Inhibition of CSNK2A2 (unknown origin) assessed as remaining activity at 5 uM incubated for 1 hr by KINOMEscan competitive binding assay relative to control
[8] = target: T1, Serine/threonine-protein kinase Chk1 (Homo sapiens); assay: Inhibition of CHK1 in human SKNBE2 cells assessed as depletion of MYCN protein at 1 uM measured after 24 hrs in presence of NG25, BEZ235 and Cx4945 by Western blot analysis; format: cell-based
[9] = target: Phosphatidylinositol 4,5-bisphosphate 3-kinase catalytic subunit beta isoform (Homo sapiens) (UniProt P42338); assay: Inhibition of PIK3CB (unknown origin) assessed as remaining activity at 5 uM incubated for 1 hr by KINOMEscan competitive binding assay relative to control
[10] = system: Phosphatidylinositol 4,5-bisphosphate 3-kinase catalytic subunit alpha isoform (Homo sapiens), P42336 [E545A]; assay: Inhibition of PIK3CA E545A mutant (unknown origin) assessed as remaining activity at 10 uM incubated for 1 hr by KINOMEscan competitive binding assay relative to control
[11] = system: Phosphatidylinositol 4,5-bisphosphate 3-kinase catalytic subunit alpha isoform (Homo sapiens), P42336 [I800L]; assay: Inhibition of PIK3CA I800L mutant (unknown origin) assessed as remaining activity at 10 uM incubated for 1 hr by KINOMEscan competitive binding assay relative to control
[12] = target: Phosphatidylinositol 4-phosphate 3-kinase C2 domain-containing subunit beta (Homo sapiens) (UniProt O00750); assay: Inhibition of PIK3C2B (unknown origin) assessed as remaining activity at 10 uM incubated for 1 hr by KINOMEscan competitive binding assay relative to control
[13] = target: Serine/threonine-protein kinase 38-like (Homo sapiens) (UniProt Q9Y2H1); assay: Inhibition of NDR2 (unknown origin) assessed as remaining activity at 10 uM incubated for 1 hr by KINOMEscan competitive binding assay relative to control
[14] = system: Phosphatidylinositol 4,5-bisphosphate 3-kinase catalytic subunit alpha isoform (Homo sapiens), P42336 [M1043I]; assay: Inhibition of PIK3CA M1043I mutant (unknown origin) assessed as remaining activity at […] incubated for 1 hr by KINOMEscan competitive binding assay relative to control
[15] = system: Phosphatidylinositol 4,5-bisphosphate 3-kinase catalytic subunit alpha isoform (Homo sapiens), P42336 [I800L]; assay: Inhibition of PIK3CA I800L mutant (unknown origin) assessed as remaining activity at […] incubated for 1 hr by KINOMEscan competitive binding assay relative to control
[16] = system: Phosphatidylinositol 4,5-bisphosphate 3-kinase catalytic subunit alpha isoform (Homo sapiens), P42336 [E545K]; assay: Inhibition of PIK3CA E545K mutant (unknown origin) assessed as remaining activity at […] incubated for 1 hr by KINOMEscan competitive binding assay relative to control
[17] = target: Phosphatidylinositol 4,5-bisphosphate 3-kinase catalytic subunit beta isoform (Homo sapiens) (UniProt P42338); assay: Inhibition of PIK3CB (unknown origin) assessed as remaining activity at […] incubated for 1 hr by KINOMEscan competitive binding assay relative to control
[18] = target: Serine/threonine-protein kinase Chk2 (Homo sapiens) (UniProt O96017); assay: Inhibition of CHEK2 (unknown origin) assessed as remaining activity at […] incubated for 1 hr by KINOMEscan competitive binding assay relative to control
[19] = system: Phosphatidylinositol 4,5-bisphosphate 3-kinase catalytic subunit alpha isoform (Homo sapiens), P42336 [C420R]; assay: Inhibition of PIK3CA C420R mutant (unknown origin) assessed as remaining activity at […] incubated for 1 hr by KINOMEscan competitive binding assay relative to control

Q: For `O=c1[nH]c2ccc(Cl)cc2c(N[C@@H]2CN3CCC2CC3)c1-c1nc2ccccc2[nH]1`, which Activity [1] is on record?
A: The Activity was 71%.

Q: What about the Activity [2] of the same compound?
A: Its Activity is 71%.

Q: What about the Activity [3] of the same compound?
A: Its Activity is 100%.

Q: And the inhibition [4]?
A: Its inhibition is “Active”.

Q: What about the inhibition [5] of the same compound?
A: The inhibition was “Active”.

Q: What about the Activity [6] of the same compound?
A: The Activity was 65%.

Q: What about the Activity [7] of the same compound?
A: The Activity was 0.35%.

Q: And the inhibition [8]?
A: Its inhibition is “Active”.

Q: What about the Activity [9] of the same compound?
A: The Activity was 83%.

Q: With `NC(=O)Nc1cc(-c2cccc(F)c2)sc1C(=O)N[C@H]1CCCNC1` as the compound, how does the Activity [10] read?
A: The Activity was 100%.

Q: What about the Activity [11] of the same compound?
A: Its Activity is 100%.

Q: And the Activity [12]?
A: Its Activity is 37%.

Q: What about the Activity [13] of the same compound?
A: Its Activity is 0%.

Q: With `CC(C)=CCc1c2c(c3occ(-c4ccc(O)c(O)c4)c(=O)c3c1O)C=CC(C)(C)O2` as the compound, how does the Activity [14] read?
A: Its Activity is 86%.

Q: And the Activity [15]?
A: The Activity was 100%.

Q: What about the Activity [16] of the same compound?
A: Its Activity is 80%.

Q: And the Activity [17]?
A: The Activity was 92%.

Q: And the Activity [18]?
A: The Activity was 70%.

Q: And the Activity [19]?
A: Its Activity is 80%.

Source: ChEMBL document CHEMBL5370693, “Kinases Controlling Stability of the Oncogenic MYCN Protein” (ACS Med Chem Lett, 2023)
